Measured values published in ChEMBL document CHEMBL1135868, “Small ligands interacting with the phosphotyrosine binding pocket of the Src SH2 protein” (Bioorg Med Chem Lett, 2002).

Target: Proto-oncogene tyrosine-protein kinase Src (Homo sapiens, UniProt P12931)
Test: The compound was evaluated for its binding affinity towards phosphotyrosine binding pocket of Src protein tyrosine kinase SH2 domain

Proto-oncogene tyrosine-protein kinase Src, sequence (P12931 2-536 limits assumed): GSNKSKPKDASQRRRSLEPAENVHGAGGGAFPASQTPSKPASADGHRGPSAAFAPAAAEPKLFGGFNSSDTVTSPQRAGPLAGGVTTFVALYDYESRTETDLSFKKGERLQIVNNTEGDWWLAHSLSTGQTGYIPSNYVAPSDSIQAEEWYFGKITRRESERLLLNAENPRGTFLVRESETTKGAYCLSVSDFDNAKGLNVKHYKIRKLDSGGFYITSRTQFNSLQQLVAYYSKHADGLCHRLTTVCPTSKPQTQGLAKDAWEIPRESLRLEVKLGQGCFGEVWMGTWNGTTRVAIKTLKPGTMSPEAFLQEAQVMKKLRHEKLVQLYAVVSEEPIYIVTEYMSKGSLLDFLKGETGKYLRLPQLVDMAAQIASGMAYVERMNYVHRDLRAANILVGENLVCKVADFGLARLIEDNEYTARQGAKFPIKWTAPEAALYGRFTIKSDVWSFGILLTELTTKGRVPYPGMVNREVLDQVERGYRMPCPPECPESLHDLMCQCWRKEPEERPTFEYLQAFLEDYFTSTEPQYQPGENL

SMILES | IC50 [mM]
O=P(O)(O)C(O)c1ccc(-c2ccccc2)cc1 (stereo not drawn) | > 10
COc1ccccc1C(O)P(=O)(O)O (stereo not drawn) | > 10
CCCOc1ccc(C(O)P(=O)(O)O)cc1 (stereo not drawn) | 2.4
O=P(O)(O)C(O)c1ccc2ccccc2c1 (stereo not drawn) | 4.4
O=C(Nc1ccc(OCc2ccccc2)cc1)P(=O)(O)O | 0.8
O=P(O)(O)C(O)C1CCCCC1 (stereo not drawn) | > 10
O=C(NCCc1ccccc1)P(=O)(O)O [PHENETHYLCARBAMOYLPHOSPHONIC ACID] | > 5
O=C(NCc1ccccc1)P(=O)(O)O [(BENZYLAMINO)CARBONYLPHOSPHONIC ACID] | 4.4
CC(C)(C)c1ccc(OP(=O)(O)O)cc1 | 4
CCc1ccc(NC(=O)P(=O)(O)OCc2ccccc2)cc1 | > 5
COC(=O)c1cccc(OP(=O)(O)O)c1 | 4
O=P(O)(O)Oc1ccc2ccccc2c1 | 1
COc1cc(NC(=O)P(=O)(O)O)cc(OC)c1OC | 2.1
O=P(O)(O)Oc1ccc(SC(F)(F)F)cc1 | 1.2
Nc1ccc(OP(=O)(O)O)cc1 | 0.6
CCOC(=O)c1ccc(NC(=O)P(=O)(O)O)cc1 | 3.6
CC(C)OP(=O)(O)Oc1ccccc1C=O | 2.1
COP(=O)(O)Oc1ccccc1C=O | 3.3
CC(C)c1ccc(C(O)P(=O)(O)O)cc1 (stereo not drawn) | > 10
O=P(O)(O)C(O)c1ccccc1 (stereo not drawn) [ALPHA HYDROXY BENZYLPHOSPHONATE] | > 10
CCCCOc1ccc(NC(=O)P(=O)(O)O)cc1 | 3.9
O=P(O)(O)Oc1ccccc1 [PHENYL DIHYDROGEN PHOSPHATE] | 2.5

Continued, values first:

IC50 [mM] | SMILES
0.2 | O=Cc1ccccc1OP(=O)(O)O
4 | COC(=O)c1ccc(OP(=O)(O)O)cc1
2 | O=C(O)c1ccccc1OP(=O)(O)O [FOSFOSAL]
4 | Cc1cccc(OP(=O)(O)O)c1
0.5 | O=Cc1cccc(C=O)c1OP(=O)(O)O
3.5 | O=P(O)(O)Oc1ccccc1Cl
3.5 | CC(=O)c1ccc2ccccc2c1OP(=O)(O)O
2 | Cc1ccc(OP(=O)(O)O)cc1
1 | O=[N+]([O-])c1ccc(OP(=O)(O)O)cc1 [p-NITROPHENYLPHOSPHATE]
> 10 | Cc1cccc(C)c1OP(=O)(O)O
2.4 | O=Cc1cccc(OP(=O)(O)O)c1
4 | O=C(Nc1ccccc1OC(F)(F)F)P(=O)(O)O
3.2 | COC(=O)c1cc2ccccc2cc1OP(=O)(O)O
1 | O=P(O)(O)Oc1cccc2ccccc12
4 | COc1ccc(OP(=O)(O)O)cc1
> 10 | O=P(O)(O)Oc1cccc2cccnc12
